Experiments:
[1] = system: Middle East respiratory syndrome-related coronavirus; type: functional, organism-based; settings: Calu-3
[2] = system: Middle East respiratory syndrome-related coronavirus; type: functional, organism-based, Vero E6; settings: Vero C1008
[3] = system: Human coronavirus OC43; experiment: Antiviral activity against HCoV-OC43 infected in human Huh-7 cells assessed as reduction of viral growth; type: functional, organism-based; settings: Betacoronavirus 1, Huh-7
[4] = target: Transmembrane protease serine 2 (Homo sapiens) (UniProt O15393); experiment: Binding affinity to TMPRSS2 (unknown origin) assessed as inhibition constant by fluorescence-based assay
[5] = system: SARS-CoV; type: functional, organism-based, Vero E6; settings: Severe acute respiratory syndrome-related coronavirus, Vero C1008
[6] = system: Human coronavirus 229E; experiment: microbe, parasite or virus in culture; settings: MRC5
[7] = system: SARS-CoV-2; experiment: Antiviral activity against SARS-CoV-2 Gamma assessed as reduction of viral growth; type: functional, organism-based; settings: Severe acute respiratory syndrome coronavirus 2, Gamma
[8] = system: SARS-CoV-2; experiment: Antiviral activity against SARS-CoV-2 Beta assessed as reduction of viral growth; type: functional, organism-based; settings: Severe acute respiratory syndrome coronavirus 2, Beta
[9] = system: SARS-CoV-2; experiment: Antiviral activity against SARS-CoV-2 Delta assessed as reduction of viral growth; type: functional, organism-based; settings: Severe acute respiratory syndrome coronavirus 2, Delta
[10] = system: SARS-CoV-2; experiment: Antiviral activity against SARS-CoV-2 Omicron assessed as reduction of viral growth; type: functional, organism-based; settings: Severe acute respiratory syndrome coronavirus 2, Omicron
[11] = target: Replicase polyprotein 1ab (Severe acute respiratory syndrome coronavirus 2, UniProt P0DTD1); experiment: Inhibition of SARS-CoV-2 MPro
[12] = Cytotoxicity in African green monkey Vero cells by MTT assay; type: toxicity, cell-based; settings: chlorocebus sabaeus
[13] = system: SARS-CoV; experiment: Antiviral activity against SARS-CoV-1 infected in HAE cells assessed as inhibition of viral replication; type: functional, organism-based; settings: Severe acute respiratory syndrome-related coronavirus
[14] = system: SARS-CoV-2; type: functional, organism-based; settings: Severe acute respiratory syndrome coronavirus 2
[15] = Inhibition of MERS-CoV MPro; set-up: species or system Middle East respiratory syndrome-related coronavirus

Sequence of Transmembrane protease serine 2 (Homo sapiens) (O15393 1-255 limits assumed): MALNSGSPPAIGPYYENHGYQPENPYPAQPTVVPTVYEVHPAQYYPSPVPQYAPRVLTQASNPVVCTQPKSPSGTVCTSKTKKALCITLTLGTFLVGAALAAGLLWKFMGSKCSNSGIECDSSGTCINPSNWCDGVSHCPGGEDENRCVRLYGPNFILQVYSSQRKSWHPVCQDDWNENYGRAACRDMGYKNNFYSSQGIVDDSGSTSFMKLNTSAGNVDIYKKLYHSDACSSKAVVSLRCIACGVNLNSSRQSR
Sequence of Transmembrane protease serine 2 (Homo sapiens) (O15393 256-492 limits assumed): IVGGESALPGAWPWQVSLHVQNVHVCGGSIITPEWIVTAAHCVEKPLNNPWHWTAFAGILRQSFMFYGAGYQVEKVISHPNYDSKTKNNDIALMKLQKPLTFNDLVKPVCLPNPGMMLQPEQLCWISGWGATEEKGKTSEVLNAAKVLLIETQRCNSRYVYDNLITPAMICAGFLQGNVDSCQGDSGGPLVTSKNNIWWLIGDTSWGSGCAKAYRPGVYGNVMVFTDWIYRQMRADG

**Q.** Which results are given for `CC[C@H](C)[C@H](NC(=O)[C@H](Cc1ccc(O)cc1)NC(=O)[C@H](CO)NC(=O)[C@H](CCC(=O)O)NC(=O)[C@H](CCC(=O)O)NC(=O)[C@H](CC(C)C)NC(=O)[C@H](CCCCN)NC(=O)[C@H](CCCCN)NC(=O)[C@@H](NC(=O)[C@@H](NC(=O)[C@H](CCC(=O)O)NC(=O)[C@H](CCC(=O)O)NC(=O)[C@H](CC(C)C)NC(=O)[C@H](CCCCN)NC(=O)[C@H](CCCCN)NC(=O)[C@H](CCSC)NC(=O)[C@H](CCC(=O)O)NC(=O)[C@H](Cc1ccc(O)cc1)NC(=O)[C@H](CCC(=O)O)NC(=O)[C@H](CC(C)C)NC(=O)[C@H](CC(=O)O)NC(=O)[C@H](CC(C)C)NC(=O)[C@H](CC(C)C)NC(=O)[C@@H](NC(=O)[C@@H](NC(=O)[C@H](CC(N)=O)NC(=O)[C@@H](NC(=O)[C@H](CCC(N)=O)NC(=O)[C@@H](NC(=O)[C@H](CC(C)C)NC(=O)[C@@H](N)CO)[C@@H](C)O)[C@@H](C)CC)[C@@H](C)O)[C@@H](C)O)C(C)C)C(C)C)C(=O)N[C@@H](CC(=O)O)C(=O)N[C@@H](CC(C)C)C(=O)N[C@@H](CCCCN)C(=O)N[C@@H](CCC(=O)O)C(=O)N[C@@H](CC(C)C)C(=O)O`?
**A.** IC50 [1]: 550 nM; IC50 [2]: 550 nM

**Q.** For `COc1cccc2[nH]c(C(=O)N[C@@H](CC(C)C)C(=O)N[C@@H](C[C@@H]3CCCNC3=O)C(=O)COC(=O)c3c(C)cc(C)nc3C)cc12`, which EC50 [3] is on record?
**A.** 90 nM

**Q.** With `N=C(N)c1cccc(C[C@H](NS(=O)(=O)c2cccc(-c3ccc(Cl)cc3Cl)c2)C(=O)N2CCC(CCN)CC2)c1` as the compound, how does the K [4] read?
**A.** 0.9 nM

**Q.** With `C[C@@H](OC(C)(C)C)[C@H](NC(=O)OCc1ccccc1)C(=O)N[C@@H](CC1CCCCC1)C(=O)N[C@H](C=O)C[C@@H]1CCNC1=O` as the compound, how does the IC50 [5] read?
**A.** 600 nM

**Q.** And the IC50 [6]?
**A.** 140 nM

**Q.** For `COc1ccc(C(=O)Nc2cccc(C(F)(F)F)c2)cc1Nc1nc(-c2cccnc2)c2[nH]ccc2n1`, which EC50 [7] is on record?
**A.** < 6.9 nM

**Q.** And the EC50 [8]?
**A.** 12.4 nM

**Q.** What about the EC50 [9] of the same compound?
**A.** < 6.9 nM

**Q.** And the EC50 [10]?
**A.** < 6.9 nM

**Q.** For `O=C[C@H](C[C@@H]1CCNC1=O)NC(=O)[C@H](Cc1ccccc1)NC(=O)c1cc2ccccc2[nH]1`, which IC50 [11] is on record?
**A.** 34 nM

**Q.** Which CC50 [12] does the source give for `CCC(CC)COC(=O)[C@H](C)NP(=O)(OC[C@@H]1O[C@](C#N)(c2ccc3c(N)ncnn23)[C@@H](O)[C@H]1O)Oc1ccccc1` (some centres not stated) here?
**A.** > 100000 nM

**Q.** And the IC50 [13]?
**A.** 69 nM

**Q.** With `CC[C@H](C)[C@H](NC(=O)[C@H](Cc1ccc(O)cc1)NC(=O)[C@H](CO)NC(=O)[C@H](CCC(=O)O)NC(=O)[C@H](CC(N)=O)NC(=O)[C@H](CC(C)C)NC(=O)[C@H](C)NC(=O)[C@H](CCCCN)NC(=O)[C@@H](NC(=O)[C@@H](NC(=O)[C@H](CCC(N)=O)NC(=O)[C@H](CCC(N)=O)NC(=O)[C@H](CC(C)C)NC(=O)[C@H](CO)NC(=O)[C@H](CCCNC(=N)N)NC(=O)[C@H](CCSC)NC(=O)[C@H](CCC(=O)O)NC(=O)[C@H](Cc1ccc(O)cc1)NC(=O)[C@H](CCC(=O)O)NC(=O)[C@H](CC(C)C)NC(=O)[C@H](CC(=O)O)NC(=O)[C@H](CC(C)C)NC(=O)[C@H](CC(C)C)NC(=O)[C@@H](NC(=O)[C@@H](NC(=O)[C@H](CC(N)=O)NC(=O)[C@@H](NC(=O)[C@H](CCC(N)=O)NC(=O)[C@@H](NC(=O)[C@H](CC(C)C)NC(=O)[C@@H](N)CO)[C@@H](C)O)[C@@H](C)CC)[C@@H](C)O)[C@@H](C)O)C(C)C)C(C)C)C(=O)N[C@@H](CC(=O)O)C(=O)N[C@@H](CC(C)C)C(=O)N[C@@H](CCCCN)C(=O)N[C@@H](CCC(=O)O)C(=O)N[C@@H](CC(C)C)C(=O)O` as the compound, how does the IC50 [1] read?
**A.** 550 nM

**Q.** And the IC50 [2]?
**A.** 550 nM

**Q.** For `NC1(C(=O)N[C@@H](CCO)c2ccc(Cl)cc2)CCN(c2nc[nH]c3nccc2-3)CC1` [CAPIVASERTIB], which IC50 [14] is on record?
**A.** 2330 nM

**Q.** Which IC50 [15] does the source give for `CC(C)(C)OC(=O)Nc1cccn([C@@H](CC2CC2)C(=O)N[C@@H](C[C@@H]2CCNC2=O)C(=O)C(=O)NCc2ccccc2)c1=O` here?
**A.** 580 nM
